According to paper PMC10609143, “Inhibitory Mechanisms of Lekethromycin in Dog Liver Cytochrome P450 Enzymes Based on UPLC-MS/MS Cocktail Method” (Molecules, 2023):

Columns and labels:
Assay type in all cases: in vitro ADME
[1] = molecular target: T1, CYP2D6 (Canis lupus familiaris, UniProt Q29473); test: CYP450 inhibition study of LKMS in dog liver microsomes, dextromethorphan O-demethylation
T1 construct: from tissue; host or cells: dog liver microsomes (DLM)
T1 sequence (Q29473 1-500): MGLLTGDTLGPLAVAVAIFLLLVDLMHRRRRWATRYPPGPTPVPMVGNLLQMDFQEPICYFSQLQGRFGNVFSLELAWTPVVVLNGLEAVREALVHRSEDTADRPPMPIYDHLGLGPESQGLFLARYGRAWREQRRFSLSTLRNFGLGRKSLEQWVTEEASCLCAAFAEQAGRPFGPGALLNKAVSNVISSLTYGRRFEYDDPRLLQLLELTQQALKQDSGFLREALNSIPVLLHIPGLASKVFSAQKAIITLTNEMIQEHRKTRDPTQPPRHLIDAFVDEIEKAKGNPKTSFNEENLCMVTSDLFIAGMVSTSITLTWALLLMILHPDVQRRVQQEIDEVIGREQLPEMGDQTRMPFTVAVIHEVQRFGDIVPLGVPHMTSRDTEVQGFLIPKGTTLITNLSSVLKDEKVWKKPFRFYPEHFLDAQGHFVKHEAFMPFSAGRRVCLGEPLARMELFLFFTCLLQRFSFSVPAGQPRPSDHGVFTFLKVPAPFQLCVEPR
Procedure: (§1) All experiments were performed in triplicate.
(§2) Inhibition assessment of CYP450 isoforms in DLM was performed with a fixed concentration of model probe substrates and a series of concentrations of LKMS ranging from 0 to 80 μM. The concentration of probe substrates was at a concentration of Km in this study. […] Mode inhibition was examined based on a primary Lineweaver–Burk plot and a secondary plot.
(§3) The IC50 values and enzyme kinetic parameters were determined by plotting relative activities over the logarithm of the concentration of LKMS using GraphPad (v.8.0.2, CA, USA). The mode of the inhibitor was analyzed using a Lineweaver–Burk plot and a secondary plot for inhibition constant (Ki and αKi) values. All experimental data are shown as mean ± standard deviation (SD).

[2] = tested on: CYP450 enzymes in dog liver microsomes; test: Chemical inhibition experiments: LKMS disappearance rate with selective CYP450 inhibitors; settings: n = 3
Procedure: The effect of selective inhibitors on the rate of LKMS disappearance was investigated to identify the metabolizing enzymes of LKMS. The total volume of the incubation system was 200 μL, which contained the tested compound, inhibitors, PBS (pH = 7.4), LKMS, and NADPH. The study was performed via incubation with different inhibitors of CYP450 as follows: α-naphthoflavone (CYP1A2, 2 μM), pilocarpine (CYP2A6, 8 μM), Thio-TEPA (CYP2B6, 6 μM), sulfaphenazole (CYP2C9, 6 μM), quinidine (CYP2D6, 8 μM), sodium diethyldithiocarbamate (CYP2E1, 20 μM), and ketoconazole (CYP3A4, 2 μM). The sample incubated without inhibitors was used as a negative control. The sample was incubated with dimethyl sulfoxide (DMSO) (25%) as a positive control in this study. Following this pilot, confirmatory experiments were conducted by incubating with DLM in the presence of specific CYP450 inhibitors.

[3] = molecular target: T2, CYP1A2 (Canis lupus familiaris, UniProt P56592); test: CYP450 inhibition study of LKMS in dog liver microsomes (cocktail, UPLC-MS/MS), phenacetin O-deethylation; settings: probe at Km, 15 min, 0.2 mg/mL protein, n = 3
T2 construct: from tissue; host or cells: dog liver microsomes (DLM)
T2 sequence (P56592 1-512): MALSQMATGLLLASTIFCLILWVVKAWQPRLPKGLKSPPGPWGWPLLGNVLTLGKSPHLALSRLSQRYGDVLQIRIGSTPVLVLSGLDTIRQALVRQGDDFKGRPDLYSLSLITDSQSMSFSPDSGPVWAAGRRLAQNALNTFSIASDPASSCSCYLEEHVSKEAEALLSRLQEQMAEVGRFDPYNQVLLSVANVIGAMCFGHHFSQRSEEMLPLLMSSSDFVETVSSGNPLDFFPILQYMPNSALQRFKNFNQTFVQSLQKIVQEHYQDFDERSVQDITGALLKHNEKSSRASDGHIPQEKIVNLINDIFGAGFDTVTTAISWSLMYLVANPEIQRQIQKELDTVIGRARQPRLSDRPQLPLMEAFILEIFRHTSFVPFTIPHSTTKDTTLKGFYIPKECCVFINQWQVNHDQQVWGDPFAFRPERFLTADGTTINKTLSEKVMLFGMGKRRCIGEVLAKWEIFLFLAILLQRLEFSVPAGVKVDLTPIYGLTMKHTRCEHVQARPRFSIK
Procedure: as §1, §2, §3

[4] = tested on: CYP2A6; test: Irreversible inhibition (IC50 shift) in dog liver microsomes
Procedure: (§4) To characterize the reversible or irreversible mechanism of CYP450 inhibition via LKMS, the shifted IC50 values were used to determine whether the inhibition of LKMS on CYP450 was time-dependent. […] The above mixture was then incubated for another 30 min in the presence of NADPH. The concentrations of LKMS were designated as 0.2, 2, 4, 6, 8, 10, 20, 40, and 80 μM, and the concentration of each probe substrate was based on each Km value. The concentrations of the probe substrates of CYP2A6, CYP2B6, and CYP2D6 were at single concentrations approximating their Km values.

[5] = molecular target: T1, CYP2D6; test: as above
Procedure: as §4

[6] = tested on: CYP2A6; test: CYP450 inhibition study of LKMS in dog liver microsomes, coumarin hydroxylation
Procedure: as §1, §2, §3

[7] = molecular target: T3, CYP2E1 (Canis lupus familiaris, UniProt Q9MZY0); test: CYP450 inhibition study of LKMS in dog liver microsomes, chlorzoxazone hydroxylation; settings: probe at Km, 15 min, 0.2 mg/mL protein, n = 3
T3 construct: from tissue; host or cells: dog liver microsomes (DLM)
Procedure: as §1, §2, §3

T3 sequence (Q9MZY0 whole entry): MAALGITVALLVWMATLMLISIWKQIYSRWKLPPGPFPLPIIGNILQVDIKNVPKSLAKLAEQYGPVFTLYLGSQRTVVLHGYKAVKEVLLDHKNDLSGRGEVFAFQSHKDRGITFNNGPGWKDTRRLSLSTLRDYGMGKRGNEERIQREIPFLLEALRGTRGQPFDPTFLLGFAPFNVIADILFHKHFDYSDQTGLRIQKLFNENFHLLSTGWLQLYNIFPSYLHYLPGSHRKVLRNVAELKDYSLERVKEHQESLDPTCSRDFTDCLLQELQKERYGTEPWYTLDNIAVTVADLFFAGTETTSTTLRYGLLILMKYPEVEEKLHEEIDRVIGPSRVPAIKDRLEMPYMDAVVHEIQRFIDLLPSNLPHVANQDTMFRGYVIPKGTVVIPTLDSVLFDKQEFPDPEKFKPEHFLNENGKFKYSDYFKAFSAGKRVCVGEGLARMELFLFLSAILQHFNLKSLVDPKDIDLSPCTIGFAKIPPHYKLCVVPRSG

Substance: Lekethromycin [LKMS]
- Mode of inhibition ([1]; CYP2D6, Lineweaver-Burk plots): mixed way
- Ki ([1]; CYP2D6, dog liver microsomes, Lineweaver-Burk and secondary (slope) plot, n = 2, read-out: Ki (inhibition constant)): 64.9 µM
- αKi (alpha inhibition constant) ([1]; CYP2D6, dog liver microsomes, secondary (intercept) plot, n = 2): 279.6 µM
- IC50 ([1]; dog liver microsomes, dextromethorphan O-demethylation, probe at Km, 15 min, 0.2 mg/mL protein, n = 3): 39.7 µM
- Decrease of biotransformation rate of LKMS ([2]; CYP1A2 inhibitor α-naphthoflavone 2 μM): about 50%
- Decrease of biotransformation rate of LKMS ([2]; CYP2A6 inhibitor pilocarpine 8 μM): about 50%
- Decrease of biotransformation rate of LKMS ([2]; CYP2B6 inhibitor Thio-TEPA 6 μM): about 50%
- Decrease of biotransformation rate of LKMS ([2]; CYP2C9 inhibitor sulfaphenazole 6 μM): about 50%
- Decrease of biotransformation rate of LKMS ([2]; CYP2E1 inhibitor sodium diethyldithiocarbamate 20 μM): about 50%
- IC50 [3]: > 200 µM
- IC50 fold-shift, Shift Ratio (−NADPH/+NADPH) ([4]; CYP2A6, 30 min preincubation at 37 °C with and without NADPH): 1.29
- Time-dependent inhibition ([4]; CYP2A6, judged from IC50 fold-shift <1.5): might not be a time-dependent inhibitor
- IC50 fold-shift, Shift Ratio (−NADPH/+NADPH) ([5]; CYP2D6, 30 min preincubation at 37 °C with and without NADPH): 1.10
- Time-dependent inhibition ([5]; CYP2D6, judged from IC50 fold-shift <1.5): might not be a time-dependent inhibitor
- Mode of inhibition ([6]; CYP2A6, Lineweaver-Burk plots): mixed-type inhibition
- Ki ([6]; CYP2A6, dog liver microsomes, Lineweaver-Burk and secondary (slope) plot, n = 2, read-out: Ki (inhibition constant)): 136 µM
- αKi (alpha inhibition constant) ([6]; CYP2A6, dog liver microsomes, secondary (intercept) plot, n = 2): 227.6 µM
- IC50 ([6]; dog liver microsomes, coumarin hydroxylation, probe at Km, 15 min, 0.2 mg/mL protein, n = 3): 62.5 µM
- IC50 [7]: > 200 µM
